Reference: US7030087B2, “Synthetic approach to designed chemical structures” (priority 1996, dated 2006)

Legend:
EC (endothelial cells) = test: EC proliferation, 3[H]thymidine incorporation assay; format: cell-based
Procedure: (§1) Since the in vivo situation of tumor associated EC involves the low expression or even absence of ICAM-1, the next set of experiments aimed to study the ability to reinduce ICAM-I expression after bFBF preincubation. […] In these experiments, HUVEC were pretreated for 3 days with bFGF, subsequently PF4 was added for 3 days and, where indicated in the last 16 hours of culture 4 ng/ml TNFα was added. Human umbilical vein derived endothelial cells (HUVEC) were harvested from normal human umbilical cords by perfusion with 0.125% trypsin/EDTA as described previously. Cells were cultured in fibronectin (FN) coated tissue culture flasks in culture medium (RPMI-1640 with 20% human serum (HS), supplemented with 2 mM glutamine and 100 U/ml penicillin and 0.1 mg/ml streptomycin). Immunofluorescence using indirect PE-conjugated reagents required three separate incubations. 1×10^5 EC were fixed for 1 hour in 1% paraformaldehyde, resuspended in 20 μl appropriately diluted Mab and incubated for 1 hour on ice. Subsequently, cells were washed two times in PBS/BSA (0.1%) and incubated for another 30 minutes with biotinylated rabbit-anti-mouse Ig (Dako, Glostrup, Denmark). After another 2 washings, cells were incubated with streptavidin-phycoerythrin conjugate (Dako). Stained cells were analyzed on a FACScan flowcytometer. Data analysis was performed using PCLysys software (Becton Dickinson, Mountain View, Calif.). Statistical significance of observed differences was determined using the Student's t-test.
EC proliferation was measured using a ^3[H]thymidine incorporation assay. EC were seeded in flatbottomed 96-well tissue culture plates (5000 cells/well) and grown for 3 days, in culture medium. In some cultures the proliferation of EC was enhanced by incubation with 10 ng/ml bFGF. During the list 6 hours of the assay, the culture was pulsed with 0.5 μCi [methyl-^3H]thymidine/well. Results are expressed as the arithmetic mean counts per minute (cpm) of triplicate cultures.

ICAM-1 = ICAM-1 expression on endothelial cells (immunofluorescence, FACScan); format: cell-based, human
Procedure: In a first series of experiments, PF4 and βpep peptides were tested for their ability to prevent bFGF (fibroblast growth factor) mediated downregulation of ICAM-1. […] Simultaneously 100 μg/ml of each PF4, βpep-14, βpep-16, or medium was added. Mean ICAM-1 fluorescence intensity values were determined.
as §1
The energy of EC to stimulation with inflammatory cytokines was the subject of a next series of experiments. For these experiments, HUVEC (human vascular endothelial cells) were pretreated with 10 ng/ml bFGF for 3 days. Subsequently, cells are subcultured for 3 days with […] in the presence of PF4. For the last 16 hours of the culture 4 ng/ml TNFα was added to induce upregulation of ICAM-1. […] The regulation of ICAM-1 at the protein level was confirmed in Northern blot analysis for detection of ICAM-1 message. In these experiments, HUVEC were cultured for 3 days with bFGF and treated for the last 4 and 24 hours with PF4 (100 μg/ml). TNFα was added 2 hours before isolation of RNA. RNA from a subconfluent EC cultures (75 cm^2 Petri-dishes) incubated with bFGF for different time-points was isolated using an RNA-zol kit (Campro Scientific, Houston, Tex.). Total RNA (10 μg) for each sample was separated in a 0.8% formaldehyde-denaturing gel, transferred to nitrocellulose (Hybond N+, Amersham International, Amersham, UK) and hybridized to a ^32P-labelled 1.9 Kb c-DNA probe, containing the functional sequence of the human ICAM-1 gene (a gift from Dr. B. Seed). Membranes were washed at a high stringency in 0.2×SSC, 0.1% SDS at 50° C. for 1 hour. Filters were exposed to X-ray films (Kodak X-omat, Eastman Kodak Company, Rochester, N.Y.) using an intensifying screen at −80° C. for not less than 12 hr. Autoradiograms were subjected to scanning using a laser densitometer (Model GS670, Bio-Rad, Hercules, Calif.) and data were analysed with the Molecular Analyst PC™ software. The intensity of the major ICAM-1 mRNA transcript was normalized with respect to actin mRNA expression used as a control.

Molecule: O=C1CCC(N2C(=O)c3ccccc3C2=O)C(=O)N1 (stereo not drawn) [thalidomide, reference compound]
- EC growth in vitro (in words) (EC (endothelial cells)): do not affect EC growth in vitro
- effect of other inhibitors of angiogenesis on ICAM-1 expression (in words) (ICAM-1): did not affect ICAM-1 expression

Molecule: thrombospondin-1 [TSP-1]
- (3H)-thymidine incorporation (EC (endothelial cells); expt 4, 10 μg/ml, 10 ng/ml bFGF, medium 31954 ± 1220): 22338 ± 860 cpm
- (3H)-thymidine incorporation (EC (endothelial cells); expt 4, 10 μg/ml, no bFGF, medium 18904 ± 1501): 8865 ± 639 cpm
- (3H)-thymidine incorporation (EC (endothelial cells); expt 4, 25 μg/ml, 10 ng/ml bFGF, medium 31954 ± 1220): 10267 ± 797 cpm
- (3H)-thymidine incorporation (EC (endothelial cells); expt 4, 25 μg/ml, no bFGF, medium 18904 ± 1501): 5565 ± 349 cpm
- effect of other inhibitors of angiogenesis on ICAM-1 expression (in words) (ICAM-1): same results

Molecule: interferon-γ inducible protein-10 [IP-10]
- (3H)-thymidine incorporation (EC (endothelial cells); expt 3, 100 μg/ml, 10 ng/ml bFGF, medium 3432 ± 232): 725 ± 95 cpm
- effect of other inhibitors of angiogenesis on ICAM-1 expression (in words) (ICAM-1): same results
